Data reported in the NIST ThermoML archive (doi:10.1016/j.jct.2014.07.006).
Where “and” joins values, the source holds several entries; their conditions need not be identical. Equal values may be shown once. ± gives the expanded uncertainty stated by the source.

Columns and labels:
[1] = for vapor or sublimation pressure: Liquid, Rate of evaporation; for Normal melting temperature: Crystal, DTA
[2] = Molar enthalpy of transition or fusion; conditions: Crystal; DSC
[3] = molar heat capacity at constant pressure; conditions: 298.15 K; 101.33 kPa; Crystal; Small sample (50 mg) DSC

NC(=O)c1ccc([N+](=O)[O-])cc1 [p-nitrobenzamide]
[1]
Conditions | vapor or sublimation pressure
485.02 K | 0.6396 ± 0.1 kPa and 0.6809 ± 0.094 kPa
485.04 K | 0.5788 ± 0.12 kPa
485.1 K | 0.6701 ± 0.097 kPa
490.01 K | 0.8437 ± 0.11 kPa
490.03 K | 0.8038 ± 0.11 kPa
490.07 K | 0.7398 ± 0.1 kPa
490.08 K | 0.7145 ± 0.1 kPa
495.01 K | 1.021 ± 0.12 kPa and 0.9548 ± 0.12 kPa
495.05 K | 0.9568 ± 0.12 kPa
495.06 K | 0.871 ± 0.11 kPa
500.01 K | 1.06 ± 0.13 kPa
500.03 K | 1.229 ± 0.15 kPa
500.04 K | 1.142 ± 0.14 kPa
500.06 K | 1.154 ± 0.14 kPa
505 K | 1.286 ± 0.17 kPa
505.03 K | 1.474 ± 0.18 kPa
505.05 K | 1.352 ± 0.17 kPa
505.06 K | 1.416 ± 0.18 kPa
510 K | 1.671 ± 0.22 kPa
510.02 K | 1.683 ± 0.22 kPa
510.04 K | 1.565 ± 0.21 kPa
510.06 K | 1.777 ± 0.23 kPa
515.01 K | 2.113 ± 0.25 kPa and 2.01 ± 0.24 kPa
515.04 K | 2.03 ± 0.24 kPa
515.06 K | 1.895 ± 0.23 kPa
520.02 K | 2.452 ± 0.33 kPa
520.04 K | 2.289 ± 0.32 kPa
520.06 K | 2.527 ± 0.34 kPa
520.08 K | 2.386 ± 0.33 kPa
525.02 K | 3.001 ± 0.35 kPa
525.03 K | 2.837 ± 0.34 kPa
525.05 K | 2.926 ± 0.35 kPa
525.08 K | 2.758 ± 0.33 kPa
530.01 K | 3.298 ± 0.41 kPa
530.03 K | 3.568 ± 0.43 kPa
530.05 K | 3.382 ± 0.41 kPa
530.06 K | 3.455 ± 0.42 kPa
535.02 K | 3.943 ± 0.44 kPa
535.04 K | 4.206 ± 0.52 kPa
535.06 K | 4.019 ± 0.46 kPa
535.07 K | 4.152 ± 0.5 kPa

Conditions | Molar enthalpy of transition or fusion [kcal/mol] | Normal melting temperature [°C] | molar heat capacity at constant pressure [J/K/mol]
[1] | – | 200.33 ± 0.62 | –
[2] | 7.19 ± 0.158 | – | –
[3] | – | – | 212.65 ± 8.3

NC(=O)c1cccc([N+](=O)[O-])c1 [3-nitrobenzamide]
[1]
Conditions | vapor or sublimation pressure [kPa]
485 K | 0.7222 ± 0.096
485.02 K | 0.7094 ± 0.099
485.06 K | 0.6868 ± 0.1
490.01 K | 0.8798 ± 0.12
490.02 K | 0.868 ± 0.12
490.06 K | 0.84 ± 0.11
495.01 K | 1.068 ± 0.14
495.02 K | 1.057 ± 0.14
495.05 K | 1.021 ± 0.14
500 K | 1.286 ± 0.16
500.01 K | 1.284 ± 0.16
500.04 K | 1.246 ± 0.16
505.03 K | 1.495 ± 0.19
505.07 K | 1.556 ± 0.19
505.08 K | 1.557 ± 0.19
510 K | 1.794 ± 0.22
510.04 K | 1.867 ± 0.23
510.06 K | 1.872 ± 0.23
515.02 K | 2.228 ± 0.26
515.03 K | 2.226 ± 0.26
515.06 K | 2.146 ± 0.25
520.02 K | 2.545 ± 0.32
520.06 K | 2.654 ± 0.33
520.07 K | 2.633 ± 0.33
525.02 K | 3.119 ± 0.36
525.03 K | 3.091 ± 0.36
525.06 K | 3.009 ± 0.35
530 K | 3.525 ± 0.42
530.04 K | 3.638 ± 0.43
530.06 K | 3.596 ± 0.43
535.01 K | 4.145 ± 0.47
535.03 K | 4.119 ± 0.46
535.06 K | 4.215 ± 0.49

Conditions | Molar enthalpy of transition or fusion [kcal/mol] | Normal melting temperature [°C] | molar heat capacity at constant pressure [J/K/mol]
[1] | – | 141.51 ± 0.42 | –
[2] | 5.87 ± 0.134 | – | –
[3] | – | – | 237.57 ± 10

c1ccc2c(c1)ccc1ccccc12 [phenanthrene]
[1]
Conditions | vapor or sublimation pressure
400 K | 0.1505 ± 0.019 kPa [middle of 4 runs]
405 K | 0.18 ± 0.023 kPa [middle of 4 runs]
410 K | 0.2218 ± 0.029 kPa [middle of 4 runs]
415 K | 0.2759 ± 0.036 kPa [middle of 4 runs]
420 K | 0.3417 ± 0.045 kPa [middle of 4 runs]
425 K | 0.427 ± 0.056 kPa [middle of 4 runs]
430 K | 0.5304 ± 0.07 kPa [middle of 4 runs]
435 K | 0.6576 ± 0.086 kPa [middle of 4 runs]
440 K | 0.8141 ± 0.11 kPa [middle of 4 runs]
445 K | 1.004 ± 0.13 kPa [middle of 4 runs]
450 K | 1.235 ± 0.16 kPa [middle of 4 runs]
455 K | 1.516 ± 0.19 kPa [middle of 4 runs]
460 K | 1.844 ± 0.23 kPa [middle of 4 runs]
465 K | 2.233 ± 0.28 kPa [middle of 4 runs]
470 K | 2.697 ± 0.33 kPa [middle of 4 runs]
475 K | 3.245 ± 0.4 kPa [middle of 4 runs]
480 K | 3.773 ± 0.45 kPa and 3.874 ± 0.48 kPa and 3.819 ± 0.47 kPa

NC(=O)c1ccccc1[N+](=O)[O-] [2-nitrobenzamide]
[1]
Conditions | vapor or sublimation pressure
485.02 K | 0.5592 ± 0.071 kPa
485.04 K | 0.5538 ± 0.072 kPa
485.08 K | 0.5802 ± 0.068 kPa
490.02 K | 0.6682 ± 0.086 kPa
490.06 K | 0.6975 ± 0.088 kPa
490.07 K | 0.6914 ± 0.088 kPa
495 K | 0.8483 ± 0.11 kPa
495.01 K | 0.8342 ± 0.11 kPa
495.05 K | 0.8126 ± 0.1 kPa
500.01 K | 1.016 ± 0.13 kPa
500.05 K | 0.9934 ± 0.13 kPa
500.08 K | 1.036 ± 0.13 kPa
505 K | 1.234 ± 0.15 kPa
505.03 K | 1.212 ± 0.15 kPa
505.05 K | 1.264 ± 0.16 kPa
510.02 K | 1.487 ± 0.19 kPa
510.04 K | 1.531 ± 0.2 kPa
510.07 K | 1.503 ± 0.19 kPa
515.02 K | 1.877 ± 0.24 kPa
515.05 K | 1.829 ± 0.23 kPa
515.08 K | 1.822 ± 0.23 kPa
520.02 K | 2.233 ± 0.28 kPa
520.05 K | 2.227 ± 0.28 kPa
520.07 K | 2.203 ± 0.28 kPa
525.01 K | 2.884 ± 0.36 kPa and 2.697 ± 0.35 kPa
525.06 K | 2.718 ± 0.35 kPa
530.02 K | 3.274 ± 0.41 kPa
530.03 K | 3.315 ± 0.41 kPa
530.07 K | 3.29 ± 0.41 kPa
535.02 K | 3.942 ± 0.47 kPa
535.03 K | 3.951 ± 0.48 kPa
535.06 K | 3.957 ± 0.48 kPa

Conditions | Molar enthalpy of transition or fusion [kcal/mol] | Normal melting temperature [°C] | molar heat capacity at constant pressure [J/K/mol]
[1] | – | 173.80 ± 0.4 | –
[2] | 6.63 ± 0.146 | – | –
[3] | – | – | 220.96 ± 10
